Test results from ChEMBL document CHEMBL1201862, “PubChem BioAssay data set” (2004).
Activity calls are given as the source filed them.

Tests used:
[1] = HPDE-C7 pancreatic duct cell viability loss – fluorescence, HTS (AID 430); assay type: functional, cell-based; conditions: Homo sapiens
[2] = viability loss of HPDE-C7K cells – cell-based, fluorescence, HTS, primary screen (AID 431); assay type: functional; conditions: Homo sapiens
Estrogen receptor = target: T1, Estrogen receptor (Homo sapiens, UniProt P03372); assay: ERα coactivator recruitment enhancers – biochemical, TR-FRET, ERα LBD, dose response (AID 737)
T1 sequence (P03372 whole entry): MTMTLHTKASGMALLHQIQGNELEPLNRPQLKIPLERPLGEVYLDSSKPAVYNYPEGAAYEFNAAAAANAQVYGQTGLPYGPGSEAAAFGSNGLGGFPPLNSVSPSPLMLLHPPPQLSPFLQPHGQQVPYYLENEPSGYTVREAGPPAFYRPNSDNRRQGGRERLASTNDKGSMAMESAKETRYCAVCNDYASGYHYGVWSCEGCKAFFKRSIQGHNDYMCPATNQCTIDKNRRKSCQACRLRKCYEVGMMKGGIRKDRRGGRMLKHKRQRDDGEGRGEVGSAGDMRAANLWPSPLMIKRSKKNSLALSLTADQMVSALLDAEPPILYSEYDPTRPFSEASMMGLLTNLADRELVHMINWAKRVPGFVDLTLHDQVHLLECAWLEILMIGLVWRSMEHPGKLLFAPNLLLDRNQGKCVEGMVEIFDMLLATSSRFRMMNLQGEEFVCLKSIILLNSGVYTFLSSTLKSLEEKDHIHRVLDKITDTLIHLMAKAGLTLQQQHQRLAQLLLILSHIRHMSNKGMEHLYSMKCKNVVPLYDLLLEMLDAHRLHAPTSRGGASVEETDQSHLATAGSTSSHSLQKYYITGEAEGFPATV

Vero [3] = assay: viability of Vero cells under compound – cytotoxicity control for flavivirus capping enzyme inhibitors (AID 588742); assay type: functional; conditions: Chlorocebus sabaeus
Cytochrome P450 2D6 = Cytochrome P450 2D6 (Homo sapiens, UniProt P10635); assay: qHTS Assay for Inhibitors and Substrates of Cytochrome P450 2D6. [Related pubchem assays: 410 ]; assay type: ADME; conditions: read-out: Potency
Cytochrome P450 2D6, sequence (P10635 whole entry): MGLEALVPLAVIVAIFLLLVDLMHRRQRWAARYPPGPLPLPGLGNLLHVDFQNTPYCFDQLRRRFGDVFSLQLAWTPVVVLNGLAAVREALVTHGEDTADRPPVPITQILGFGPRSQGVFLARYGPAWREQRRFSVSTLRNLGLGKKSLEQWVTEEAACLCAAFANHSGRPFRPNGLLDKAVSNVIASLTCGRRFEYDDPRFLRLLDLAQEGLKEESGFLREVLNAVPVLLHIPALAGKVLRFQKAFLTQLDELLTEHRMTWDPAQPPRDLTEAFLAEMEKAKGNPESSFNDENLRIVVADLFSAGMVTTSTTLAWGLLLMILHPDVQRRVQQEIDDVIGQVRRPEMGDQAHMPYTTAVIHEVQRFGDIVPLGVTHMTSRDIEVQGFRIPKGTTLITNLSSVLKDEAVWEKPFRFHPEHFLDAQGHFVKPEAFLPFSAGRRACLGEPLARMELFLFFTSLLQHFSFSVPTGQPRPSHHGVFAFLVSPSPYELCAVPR

[4] = antiviral protection against BTV-induced cell death – arbovirus, BSR cells, confirmation (AID 1250); assay type: functional;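 also: protection from viral cytopathic effect measured as cell viability by ATP luminescence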
Vero [5] = assay: Vero 76 cell viability after compound exposure – Vero 76 cells, synthesized analogs, cytotoxicity control for West Nile virus antiviral project, SAR follow-up (AID 2414); assay type: functional; conditions: Chlorocebus sabaeus
Vero [6] = assay: Vero cell viability after compound exposure – synthesized analogs, set II, cytotoxicity control for West Nile virus antiviral project, SAR follow-up (AID 2402); assay type: functional; conditions: Chlorocebus sabaeus
Vero [7] = assay: host cell viability loss, Vero E6 – synthesized analogs, cytotoxicity control for West Nile virus antiviral project, SAR follow-up (AID 2244); assay type: functional; conditions: Chlorocebus sabaeus
Bcl-2-like protein 10 = target: T2, Bcl-2-like protein 10 (Homo sapiens, UniProt Q9HD36); assay: Bcl-B/TR3 peptide binding disruption – biochemical, fluorescence polarization, FITC-TR3 peptide, selectivity assay for Bfl-1 inhibitor project, primary screen (AID 748);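 also: fluorescence polarization from a fluorescein-labelled TR3 peptide binding purified Bcl-B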
T2 sequence (Q9HD36 whole entry): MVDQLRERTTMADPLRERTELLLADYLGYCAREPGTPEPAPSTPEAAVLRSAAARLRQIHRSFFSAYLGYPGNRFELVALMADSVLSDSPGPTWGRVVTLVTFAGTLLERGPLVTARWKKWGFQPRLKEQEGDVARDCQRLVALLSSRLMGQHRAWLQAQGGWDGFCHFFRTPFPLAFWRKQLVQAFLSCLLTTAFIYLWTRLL

[8] = target: Peroxisome proliferator-activated receptor gamma/Nuclear receptor coactivator 2 (Homo sapiens, UniProt P37231); assay type: functional;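 also: agonist potency for raising coactivator recruitment to the receptor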
[9] = target: Peroxisome proliferator-activated receptor gamma/Nuclear receptor coactivator 1 (Homo sapiens, UniProt P37231); assay type: functional;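 also: agonist potency as compounds enhance coactivator SRC-1 recruitment to PPARgamma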
[10] = target: Peroxisome proliferator-activated receptor gamma/Nuclear receptor coactivator 3 (Homo sapiens, UniProt P37231); assay type: functional;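 also: agonist potency for raising coactivator recruitment to the receptor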
Peroxisome proliferator-activated receptor gamma/Nuclear receptor coactivator 3, sequence (P37231 whole entry): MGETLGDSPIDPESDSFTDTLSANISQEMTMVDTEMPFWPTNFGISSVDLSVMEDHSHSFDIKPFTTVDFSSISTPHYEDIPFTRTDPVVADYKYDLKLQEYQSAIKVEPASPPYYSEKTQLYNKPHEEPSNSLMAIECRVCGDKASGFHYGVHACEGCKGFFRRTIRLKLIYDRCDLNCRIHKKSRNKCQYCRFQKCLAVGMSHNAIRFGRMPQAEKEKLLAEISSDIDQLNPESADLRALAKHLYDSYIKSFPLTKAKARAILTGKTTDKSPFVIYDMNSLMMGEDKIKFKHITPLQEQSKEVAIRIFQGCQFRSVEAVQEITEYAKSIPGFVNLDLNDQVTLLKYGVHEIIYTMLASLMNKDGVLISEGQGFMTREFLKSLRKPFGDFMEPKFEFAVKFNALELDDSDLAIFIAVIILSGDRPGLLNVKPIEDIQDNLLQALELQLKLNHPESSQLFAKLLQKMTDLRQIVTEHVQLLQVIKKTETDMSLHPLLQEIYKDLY
Peroxisome proliferator-activated receptor gamma/Nuclear receptor coactivator 3, sequence (Q9Y6Q9 whole entry, further chain): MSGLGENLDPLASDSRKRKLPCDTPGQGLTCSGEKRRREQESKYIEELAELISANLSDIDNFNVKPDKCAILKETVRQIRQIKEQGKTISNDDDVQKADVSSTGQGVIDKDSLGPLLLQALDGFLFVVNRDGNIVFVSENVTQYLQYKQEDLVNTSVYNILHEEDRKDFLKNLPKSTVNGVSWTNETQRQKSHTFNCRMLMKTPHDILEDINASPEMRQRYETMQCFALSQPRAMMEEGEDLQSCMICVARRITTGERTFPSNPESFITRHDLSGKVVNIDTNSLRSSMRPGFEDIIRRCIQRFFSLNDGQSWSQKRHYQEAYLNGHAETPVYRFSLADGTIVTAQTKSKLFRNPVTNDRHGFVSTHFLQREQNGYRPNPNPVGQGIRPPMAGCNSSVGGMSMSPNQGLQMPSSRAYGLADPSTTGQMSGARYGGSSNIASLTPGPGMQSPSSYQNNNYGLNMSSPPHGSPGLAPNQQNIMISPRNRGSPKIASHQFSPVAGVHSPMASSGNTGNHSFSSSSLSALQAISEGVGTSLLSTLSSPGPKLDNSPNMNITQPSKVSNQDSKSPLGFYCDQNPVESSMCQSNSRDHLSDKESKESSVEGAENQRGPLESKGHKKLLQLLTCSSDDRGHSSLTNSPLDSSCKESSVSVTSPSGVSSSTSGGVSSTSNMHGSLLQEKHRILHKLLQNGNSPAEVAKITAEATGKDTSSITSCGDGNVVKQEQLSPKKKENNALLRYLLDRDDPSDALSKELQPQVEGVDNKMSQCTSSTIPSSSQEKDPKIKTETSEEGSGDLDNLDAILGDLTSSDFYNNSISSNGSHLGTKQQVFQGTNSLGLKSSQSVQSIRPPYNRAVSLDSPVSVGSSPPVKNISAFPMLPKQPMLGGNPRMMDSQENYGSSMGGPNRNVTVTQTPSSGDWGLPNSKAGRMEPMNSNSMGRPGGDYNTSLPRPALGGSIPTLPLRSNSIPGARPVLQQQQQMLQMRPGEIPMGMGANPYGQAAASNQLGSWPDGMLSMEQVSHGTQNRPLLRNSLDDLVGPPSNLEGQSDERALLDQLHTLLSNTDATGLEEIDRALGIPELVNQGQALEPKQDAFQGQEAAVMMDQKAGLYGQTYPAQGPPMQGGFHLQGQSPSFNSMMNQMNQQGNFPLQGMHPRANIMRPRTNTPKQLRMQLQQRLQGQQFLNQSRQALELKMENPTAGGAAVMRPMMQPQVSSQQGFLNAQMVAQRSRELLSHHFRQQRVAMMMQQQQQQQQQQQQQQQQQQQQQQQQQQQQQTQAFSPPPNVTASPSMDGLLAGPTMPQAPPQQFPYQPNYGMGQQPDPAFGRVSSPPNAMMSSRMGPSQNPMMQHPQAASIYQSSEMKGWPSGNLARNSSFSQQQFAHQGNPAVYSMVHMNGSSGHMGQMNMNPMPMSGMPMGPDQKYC

Cytochrome P450 2C19 [11] = target: T3, Cytochrome P450 2C19 (Homo sapiens, UniProt P33261); assay: Cytochrome panel assay with activity outcomes. Panel member name: p450-cyp2c19 Compounds with AC50 equal or less than 10 uM are considered active; assay type: functional; conditions: read-out: AC50
T3 sequence (P33261 whole entry): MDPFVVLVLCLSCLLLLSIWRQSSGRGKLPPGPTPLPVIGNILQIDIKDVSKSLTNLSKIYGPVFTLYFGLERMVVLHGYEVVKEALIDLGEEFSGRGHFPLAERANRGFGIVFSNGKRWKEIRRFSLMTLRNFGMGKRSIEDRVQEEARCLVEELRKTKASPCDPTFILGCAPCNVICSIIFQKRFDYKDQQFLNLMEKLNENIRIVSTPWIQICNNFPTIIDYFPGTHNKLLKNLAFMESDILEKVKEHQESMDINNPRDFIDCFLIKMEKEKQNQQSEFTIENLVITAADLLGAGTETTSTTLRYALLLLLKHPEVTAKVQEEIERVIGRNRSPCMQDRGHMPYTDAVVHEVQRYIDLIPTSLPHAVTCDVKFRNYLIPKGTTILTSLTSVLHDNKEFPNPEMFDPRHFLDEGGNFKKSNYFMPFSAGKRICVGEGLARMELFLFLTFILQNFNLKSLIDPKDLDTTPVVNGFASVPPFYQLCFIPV

Cytochrome P450 2C9 [12] = target: T4, Cytochrome P450 2C9 (Homo sapiens, UniProt P11712); conditions: Potency
T4 sequence (P11712 whole entry): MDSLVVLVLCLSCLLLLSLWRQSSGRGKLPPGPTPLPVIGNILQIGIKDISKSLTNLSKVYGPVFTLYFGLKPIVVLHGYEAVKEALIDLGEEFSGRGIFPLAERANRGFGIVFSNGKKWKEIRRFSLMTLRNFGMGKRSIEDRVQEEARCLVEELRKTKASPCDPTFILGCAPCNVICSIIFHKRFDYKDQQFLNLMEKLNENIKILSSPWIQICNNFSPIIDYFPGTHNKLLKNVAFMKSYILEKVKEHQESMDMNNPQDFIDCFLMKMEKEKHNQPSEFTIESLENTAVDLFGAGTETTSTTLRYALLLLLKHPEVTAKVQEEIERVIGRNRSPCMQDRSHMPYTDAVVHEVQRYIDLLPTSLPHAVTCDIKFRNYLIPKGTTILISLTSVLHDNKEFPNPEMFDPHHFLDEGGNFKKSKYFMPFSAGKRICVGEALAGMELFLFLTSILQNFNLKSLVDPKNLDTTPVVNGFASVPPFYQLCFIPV

Cytochrome P450 2C9 [13] = target: T4, Cytochrome P450 2C9
Cytochrome P450 2C19 [14] = target: T3, Cytochrome P450 2C19; assay: qHTS Assay for Inhibitors and Substrates of Cytochrome P450 2C19. [Related pubchem assays: 410 ]; assay type: ADME; conditions: read-out: Potency
HEK293 [15] = assay: inhibition of NOD1-driven NF-kB reporter – cell-based, luminescence, uHTS, primary screen (AID 1578); assay type: functional; conditions: Homo sapiens
HEK293 [16] = assay: cells; assay type: functional, cell-based; conditions: Homo sapiens
HEK293 [17] = assay: cells; assay type: functional, cell-based; conditions: Homo sapiens; remark: listed apart in the source
HEK293 [18] = assay: NOD2 signaling inhibitors in MDP-stimulated cells, cell-based, uHTS, luminescence (AID 2001); assay type: functional; conditions: Homo sapiens
[19] = target: Voltage-gated inwardly rectifying potassium channel KCNH2 (Homo sapiens, UniProt Q12809); assay: concentration-dependent hERG rescue from blockers – cell-based, thallium flux, dose response (AID 2121); assay type: ADME
Voltage-gated inwardly rectifying potassium channel KCNH2, sequence (Q12809 whole entry): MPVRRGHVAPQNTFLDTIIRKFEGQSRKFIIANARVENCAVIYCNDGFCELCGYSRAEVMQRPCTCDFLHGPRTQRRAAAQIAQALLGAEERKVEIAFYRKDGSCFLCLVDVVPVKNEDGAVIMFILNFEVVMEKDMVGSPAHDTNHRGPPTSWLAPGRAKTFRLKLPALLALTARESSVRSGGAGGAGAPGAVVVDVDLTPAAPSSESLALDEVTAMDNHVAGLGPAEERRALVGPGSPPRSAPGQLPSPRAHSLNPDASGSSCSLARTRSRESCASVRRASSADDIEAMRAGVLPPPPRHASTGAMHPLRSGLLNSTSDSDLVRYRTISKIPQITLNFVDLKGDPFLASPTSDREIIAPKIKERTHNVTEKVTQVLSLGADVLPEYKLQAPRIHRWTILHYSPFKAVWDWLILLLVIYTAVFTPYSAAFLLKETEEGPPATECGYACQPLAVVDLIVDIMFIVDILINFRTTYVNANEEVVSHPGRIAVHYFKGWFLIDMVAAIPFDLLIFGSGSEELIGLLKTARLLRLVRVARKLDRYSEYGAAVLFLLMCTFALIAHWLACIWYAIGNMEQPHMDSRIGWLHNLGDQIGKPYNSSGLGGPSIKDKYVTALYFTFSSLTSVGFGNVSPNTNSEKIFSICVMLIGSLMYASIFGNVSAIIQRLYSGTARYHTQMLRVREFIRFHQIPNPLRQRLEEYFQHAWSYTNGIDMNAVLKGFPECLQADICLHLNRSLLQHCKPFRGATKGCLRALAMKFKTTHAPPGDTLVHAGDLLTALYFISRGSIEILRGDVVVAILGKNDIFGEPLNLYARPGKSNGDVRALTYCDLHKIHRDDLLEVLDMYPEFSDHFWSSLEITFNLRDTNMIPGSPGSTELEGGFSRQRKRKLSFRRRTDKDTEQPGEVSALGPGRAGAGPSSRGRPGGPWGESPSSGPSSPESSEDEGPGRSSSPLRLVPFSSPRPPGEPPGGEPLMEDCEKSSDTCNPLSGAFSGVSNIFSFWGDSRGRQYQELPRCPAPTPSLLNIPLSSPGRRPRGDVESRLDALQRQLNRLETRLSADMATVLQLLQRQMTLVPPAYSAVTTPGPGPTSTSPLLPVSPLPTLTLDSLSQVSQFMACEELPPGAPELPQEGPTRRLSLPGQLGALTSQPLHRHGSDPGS

Structure (SMILES): CCC(=O)Oc1ccc(/C(CC)=C(\CC)c2ccc(OC(=O)CC)cc2)cc1 [DIETHYLSTILBESTROL DIPROPIONATE]
- EC50 [1]: 4.6 µM (active)
- EC50 [2]: 3.87 µM (active)
- EC50 (Estrogen receptor): 18.1 µM (active)
- CC50 (Vero [3]): > 40 µM (active)

Structure (SMILES): O=C1c2ccccc2C(O)(O)[C@@]1(O)[C@]1(O)C(=O)c2ccccc2C1(O)O
- AC50 (Cytochrome P450 2D6): 7.94 µM (inconclusive)

Structure (SMILES): CC(CCc1ccccc1)NC(=O)c1cc2sccc2n1C (stereo not drawn)
- IC50 [4]: > 100 µM (active)

Structure (SMILES): O=C(CSc1nc2ccccc2c(=O)n1-c1ccc(F)cc1)Nc1cccc2ccccc12
- CC50 (Vero [5]): > 66.6 µM (active)
- CC50 (Vero [6]): > 100 µM (active)
- CC50 (Vero [7]): > 40 µM (active)

Structure (SMILES): CC(=O)c1c(CC(=O)O)[nH]n(-c2nc3ccccc3s2)c1=O
- IC50 (Bcl-2-like protein 10): 71.2 µM (inactive)

Structure (SMILES): O=C(CCCn1c(=O)[nH]c2ccc(Br)cc2c1=O)NCc1ccc(Cl)cc1
- EC50 [8]: > 79.4 µM (not active)
- EC50 [9]: > 79.4 µM (not active)
- EC50 [10]: > 79.4 µM (not active)

Structure (SMILES): CC(C)C(=O)Nc1ccc([N+](=O)[O-])c(C(F)(F)F)c1 [FLUTAMIDE]
- AC50 (Cytochrome P450 2C19 [11]): 10 µM (inconclusive)
- AC50 (Cytochrome P450 2C9 [12]): 39.8 µM (inconclusive)
- AC50 (Cytochrome P450 2C9 [13]): 12.6 µM (inconclusive)

Structure (SMILES): CC(C)[C@@H](CC(=O)N[C@@H]1CCCC[C@H]1C(=O)N[C@H](CC(=O)N[C@@H](CCC(=O)O)CC(=O)O)Cc1ccccc1)NC(=O)C[C@H](CO)NC(=O)[C@@H]1CCCC[C@H]1N
- AC50 (Cytochrome P450 2C19 [14]): 39.8 µM (inconclusive)
- AC50 (Cytochrome P450 2C9 [12]): 39.8 µM (inconclusive)

Structure (SMILES): CSC(=S)N/N=C/c1ccc(Br)cc1
- EC50 (HEK293 [15]): > 20 µM (inactive)
- IC50 (HEK293 [16]): > 20 µM (inactive)
- IC50 (HEK293 [17]): > 20 µM (inactive)
- IC50 (HEK293 [18]): 14.2 µM (inactive)
- EC50 [19]: 0.3 µM (active)
